≈ marks a conversion by molar mass, not a printed value. Calls of active or inactive are those of the source. The calls are words filed in the database; no cut-off is given here. A value given as a limit tells only on which side of the number the result lay.

Series [1] can be described thus: Metabolic stability in Wistar rat liver microsomes assessed as compound remaining at 1 uM after 30 mins by LC-MS/MS analysis relative to control. Type of series: ADME, Microsome. Particulars: read-out: Stability.
The nature of series [2]: Elimination rate constant in Wistar rat liver microsomes at 1 uM measured up to 120 mins by LC-MS/MS analysis. Type of series: ADME, Microsome. (In general: Microsomes from liver hold many membrane-bound enzymes, among them those of drug oxidation.)
Series [3] in a line: Metabolic stability in Wistar rat liver microsomes assessed as compound remaining at 1 uM after 5 mins by LC-MS/MS analysis relative to control. Type of series: ADME, Microsome. Particulars: read-out: Stability.
The nature of series [4]: Metabolic stability in Wistar rat plasma assessed as compound remaining at 3 uM after 120 mins by LC-MS/MS analysis relative to control. Particulars: read-out: Stability. Type of series: ADME, cell-free.
The nature of series [5]: Elimination rate constant in Wistar rat plasma at 3 uM measured up to 180 mins by LC-MS/MS analysis. Type of series: ADME, cell-free.
A short description of series [6]: Metabolic stability in Wistar rat plasma assessed as compound remaining at 3 uM after 20 mins by LC-MS/MS analysis relative to control. Type of series: ADME, cell-free. Particulars: read-out: Stability.
Series [7] is described as follows: Metabolic stability in Wistar rat liver microsomes assessed as compound remaining at 1 uM after 20 mins by LC-MS/MS analysis relative to control. Type of series: ADME, Microsome. The note with it: read-out: Stability.
A short description of series [8]: Metabolic stability in Wistar rat liver microsomes assessed as compound remaining at 1 uM after 10 mins by LC-MS/MS analysis relative to control. Type of series: ADME, Microsome. Particulars: read-out: Stability.
Series [9] deals with Mus musculus. In words: Anti-inflammatory activity against DSS-induced ulcerative colitis C57BL/6 mouse model assessed as colon length at 100 mg/kg, ig administered via gavage once a day for 14 consecutive days starting from second day post DSS challenge (reference value: 5.93 +/- 0.52 cm). Type of series: functional.
Series [10] is described as follows: Half life in Wistar rat liver microsomes at 1 uM measured up to 120 mins by LC-MS/MS analysis. Type of series: ADME, Microsome. The note with it: 2 h.
Series [11] can be described thus: Metabolic stability in Wistar rat liver microsomes assessed as compound remaining at 1 uM after 90 mins by LC-MS/MS analysis relative to control. Particulars: read-out: Stability. Type of series: ADME, Microsome.
Series [12] in a line: Half life in Wistar rat plasma at 3 uM measured up to 180 mins by LC-MS/MS analysis. Type of series: ADME, cell-free.
A short description of series [13]: Metabolic stability in Wistar rat plasma assessed as compound remaining at 3 uM after 10 mins by LC-MS/MS analysis relative to control. Type of series: ADME, cell-free. Particulars: read-out: Stability.
The nature of series [14]: Metabolic stability in Wistar rat plasma assessed as compound remaining at 3 uM after 60 mins by LC-MS/MS analysis relative to control. Type of series: ADME, cell-free. The note with it: read-out: Stability.
Series [15] is described as follows: Metabolic stability in Wistar rat liver microsomes assessed as compound remaining at 1 uM after 40 mins by LC-MS/MS analysis relative to control. Type of series: ADME, Microsome. The note with it: read-out: Stability.
Series [16] is described as follows: Metabolic stability in Wistar rat plasma assessed as compound remaining at 3 uM after 40 mins by LC-MS/MS analysis relative to control. Type of series: ADME, cell-free. The note with it: read-out: Stability.
Series [17] is described as follows: Metabolic stability in Wistar rat plasma assessed as compound remaining at 3 uM after 90 mins by LC-MS/MS analysis relative to control. The note with it: read-out: Stability. Type of series: ADME, cell-free.
Series [18] in a line: Metabolic stability in Wistar rat plasma assessed as compound remaining at 3 uM after 5 mins by LC-MS/MS analysis relative to control. Particulars: read-out: Stability. Type of series: ADME, cell-free.
The nature of series [19]: Metabolic stability in Wistar rat liver microsomes assessed as compound remaining at 1 uM after 60 mins by LC-MS/MS analysis relative to control. The note with it: read-out: Stability. Type of series: ADME, Microsome.
Series [20] is described as follows: Metabolic stability in Wistar rat liver microsomes assessed as compound remaining at 1 uM after 120 mins by LC-MS/MS analysis relative to control. Type of series: ADME, Microsome. The note with it: read-out: Stability.
A short description of series [21]: Aqueous solubility of compound after 24 hrs by HPLC analysis. Type of series: physicochemical. Particulars: for solubility at 24 h: aqueous; for solubility: buffer, 24 h.
Series [22] in a line: Metabolic stability in Wistar rat plasma assessed as compound remaining at 3 uM after 180 mins by LC-MS/MS analysis relative to control. Type of series: ADME, cell-free. The note with it: read-out: Stability.
For series [23], the system named is Mus musculus. In words: Anti-inflammatory activity against DSS-induced ulcerative colitis C57BL/6 mouse model assessed as colon length at 100 mg/kg, ig administered for 7 consecutive days followed by 7 days treatment with drinking water followed by three additional DSS treatment cycles (reference value: 5.93 +/- 0.52 cm). Type of series: functional.
Series [24] can be described thus: Ratio of compound t1/2 to myricetin t1/2 in Wistar rat plasma at 3 uM measured up to 180 mins by LC-MS/MS analysis. Type of series: ADME, cell-free. The note with it: 3 h.
Series [25] in a line: Ratio of compound t1/2 to myricetin t1/2 in Wistar rat liver microsomes at 1 uM measured up to 120 mins by LC-MS/MS analysis. Particulars: 2 h. Type of series: ADME, Microsome.
The subject of series [26] is Mus musculus. In words: Anti-inflammatory activity against DSS-induced ulcerative colitis C57BL/6 mouse model assessed as colon length at 50 mg/kg, ig administered via gavage once a day for 14 consecutive days starting from second day post DSS challenge (reference value: 5.93 to 7.1 cm). Type of series: functional.
The nature of series [27]: Ratio of compound solubility to myricetin solubility in water after 24 hrs by HPLC analysis. Type of series: physicochemical. The note with it: buffer.
Series [28] has as its system Mus musculus. In words: Anti-inflammatory activity against DSS-induced ulcerative colitis C57BL/6 mouse model assessed as decrease in inflammatory score at 50 mg/kg, ig administered via gavage once a day for 14 consecutive days starting from second day post DSS challenge. Type of series: functional, organism-based.
The subject of series [29] is Mus musculus. In words: Anti-inflammatory activity against DSS-induced ulcerative colitis C57BL/6 mouse model assessed as mild cellular infiltration in colon at 50 mg/kg, ig administered via gavage once a day for 14 consecutive days starting from second day post DSS challenge by H and E staining based analysis. Type of series: functional, organism-based.
Series [30] can be described thus: Toxicity in po dosed mouse. Type of series: organism-based. The note with it: in vivo.
Series [31] relates to Mus musculus. In words: Anti-inflammatory activity against DSS-induced ulcerative colitis C57BL/6 mouse model assessed as increase in colon length administered via gavage once a day for 14 consecutive days starting from second day post DSS challenge. Type of series: functional, organism-based.

What is called half-life is how long it takes for the measured level to halve. The low end stands for fast loss, the high end for slow loss. One may read the solubility as how much of the substance goes into solution per volume. The low end stands for little dissolved substance, the high end for much dissolved substance. On to `O=c1c(O)c(-c2cc(O)c(O)c(O)c2)oc2cc(O)cc(O)c12` [MYRICETIN], for which, in series [1], the remaining at 0.5 h, 1 µM was found to be 18.1%. For the same compound, the k el at 2 h, 1 µM in [2] was 0.0005 s⁻¹. For the same compound, the remaining at 5 min, 1 µM in [3] came out at 81.3%. Also, the remaining at 2 h, 3 µM in series [4] worked out at 1.23%. Further, in series [5], the k el at 3 h, 3 µM is 0.000833 s⁻¹. Also, the remaining at 20 min, 3 µM in series [6] is 62.1%. For the same compound, the remaining at 20 min, 1 µM in [7] is 31.6%. Besides, in series [8], the remaining at 10 min, 1 µM was 55.9%. Besides, the Activity in the series on Mus musculus [9] is reported as 6.55 cm. The compound further came in with a t1/2 in [10] of 0.3397 h. The remaining at 1.5 h, 1 µM in series [11] is 3.32%. The same compound displayed a half-life at 3 µM in series [12] of 0.234 h. The remaining at 10 min, 3 µM in [13] turned out to be 89.2%. In addition, the remaining at 1 h, 3 µM in [14] was 5.81%. In series [15], the remaining at 40 min, 1 µM is 8.01%. In addition, the remaining at 40 min, 3 µM in series [16] worked out at 19%. For the same compound, the remaining at 1.5 h, 3 µM in series [17] was 0.96%. For the same compound, the remaining at 5 min, 3 µM in series [18] was determined as 98.1%. For the same compound, the remaining at 1 h, 1 µM in series [19] turned out to be 4.85%. Further, in series [20], the remaining at 2 h, 1 µM was 1.9%. The compound also came in with a solubility at 24 h in [21] of 14 µg/mL (≈ 44 µM). The remaining at 3 h, 3 µM in [22] came out at 0.53%.
Take `Nc1ccc(O)c(C(=O)O)c1` [MESALAMINE]: the Activity in the series with Mus musculus [23] is recorded as 7.15 cm.
For orientation: LD50 means the dose at which mortality reaches 50%. Regarding `O=c1c(O[C@@H]2O[C@H](CO)[C@@H](O[C@@H]3O[C@H](CO)[C@H](O)[C@H](O)[C@H]3O)[C@H](O)[C@H]2O)c(-c2cc(O)c(O)c(O)c2)oc2cc([O-])cc(O)c12.[Na+]`, the remaining at 0.5 h, 1 µM in [1] came out at 87.2%. Besides, in series [2], the k el at 2 h, 1 µM is 0.000167 s⁻¹. In addition, the remaining at 5 min, 1 µM in series [3] was found to be 96.6%. In addition, the Ratio in series [24] is listed as 10; in series [25], 20; in series [27], above 7000. For the same compound, the remaining at 2 h, 3 µM in [4] turned out to be 55%. In [5], this compound showed a k el at 3 h, 3 µM of 0.000167 s⁻¹. In addition, the remaining at 20 min, 3 µM in [6] came out at 79.8%. Further, in the series on Mus musculus [26], the Activity was 8.11 - 10.6 cm. Also, the remaining at 20 min, 1 µM in series [7] came out at 82.5%. Besides, the remaining at 10 min, 1 µM in series [8] stood at 89.7%. Besides, the t1/2 in [10] was found to be 6.8098 h. In series [11], the remaining at 1.5 h, 1 µM worked out at 78.1%. Moreover, the inhibition entry in the series with Mus musculus [28] was “Active”. This compound also showed a half-life at 3 µM in series [12] of 2.42 h. Further, in series [13], the remaining at 10 min, 3 µM worked out at 88.9%. Moreover, the remaining at 1 h, 3 µM in series [14] came out at 67.7%. Besides, the result with Mus musculus [29] was Active. In addition, the remaining at 40 min, 1 µM in series [15] was found to be 87.5%. The remaining at 40 min, 3 µM in series [16] is 82.4%. In series [17], the remaining at 1.5 h, 3 µM came out at 67.8%. Moreover, the remaining at 5 min, 3 µM in [18] was 99.7%. The compound also came in with an LD50 in [30] above 5000 mg/kg. The remaining at 1 h, 1 µM in [19] is 83.5%. In addition, in series [20], the remaining at 2 h, 1 µM came out at 76.1%. The solubility at 24 h in series [21] is above 100000 µg/mL. Further, the remaining at 3 h, 3 µM in series [22] was found to be 58.4%.
The compound `CC(=O)OC[C@H]1O[C@@H](O[C@H]2[C@H](OC(C)=O)[C@@H](OC(C)=O)[C@H](Oc3c(-c4cc(OCc5ccccc5)c(OCc5ccccc5)c(OCc5ccccc5)c4)oc4cc(OCc5ccccc5)cc(O)c4c3=O)O[C@@H]2COC(C)=O)[C@H](OC(C)=O)[C@@H](OC(C)=O)[C@H]1OC(C)=O` showed a solubility in series [21] below 0.1 µg/mL. In the series on Mus musculus [31], the outcome was Active.
For `O=C(Oc1cc(OC(=O)c2ccccc2O)c2c(=O)c(OC(=O)c3ccccc3O)c(-c3cc(OC(=O)c4ccccc4O)c(OC(=O)c4ccccc4O)c(OC(=O)c4ccccc4O)c3)oc2c1)c1ccccc1O` the same measures were below 0.02 µg/mL and “Active”.
Turning to `CC(=O)OC[C@H]1O[C@@H](O[C@H]2[C@H](OC(C)=O)[C@@H](OC(C)=O)[C@H](Oc3c(-c4cc(O)c(O)c(O)c4)oc4cc(O)cc(O)c4c3=O)O[C@@H]2COC(C)=O)[C@H](OC(C)=O)[C@@H](OC(C)=O)[C@H]1OC(C)=O`, the concentration in solution in series [21] (solubility at 24 h) came to 1390 µg/mL (≈ 1480 µM). In addition, in the series on Mus musculus [31], the result was Active.
The compound `O=C(Oc1c(-c2cc(O)c(O)c(O)c2)oc2cc(O)cc(OC(=O)c3ccccc3O)c2c1=O)c1ccccc1O` displayed a solubility in series [21] below 0.1 µg/mL. The outcome in the series with Mus musculus [31] was Active.

The record behind these values is ChEMBL document CHEMBL4393682, “Development of M10, myricetin-3-O-β-d-lactose sodium salt, a derivative of myricetin as a potent agent of anti-chronic colonic inflammation” (Eur J Med Chem, 2019).
